Source: article PMC3477139 (PLoS ONE, 2012)

Experiments:
Assay type in all cases: cell-based
human GLP-1R = target: T1, human GLP-1R (Homo sapiens, UniProt P43220); assay: cAMP generation in intact HEK-GLP-1R cells
T1 construct: expressed in transfected cells; vector pcDNA5/FRT
Experimental: (§1) HEK-Flp-In cells with stable recombinant expression of the human GLP-1R (HEK-GLP-1R) were cultured in DMEM with high glucose supplemented with 10% FBS, 100 µg/ml streptomycin and 100 units/ml penicillin sulphate. These cells were originally generated by transfection of HEK-Flp-In cells (Invitrogen: Paisley, U.K.) with pcDNA5/FRT containing the human GLP-1R. […] INS-1E cells were kindly provided by Prof. C.B. Wollheim of the University of Geneva, Switzerland [19]. These cells were used between passages 65–90 and cultured in RPMI media containing 11.1 mM glucose, 5% heat-inactivated FBS, 100 µg/ml streptomycin, 100 units/ml penicillin sulphate, 100 units/ml neomycin, 50 µM β-mercaptoethanol, 10 mM HEPES and 1 mM sodium pyruvate. All cells were cultured at 37°C in a 5% CO2 humidified atmosphere and passaged at confluence.
(§2) Confluent monolayers of HEK-GLP-1R cells cultured in 24-well plates pre-coated with poly-D-lysine (0.1% w/v) where washed twice with 0.5 ml Krebs-HEPES buffer (KHB, composition: 10 mM HEPES; 4.2 mM NaHCO3; 11.7 mM D-glucose; 1.18 mM MgSO4·7H2O; 1.18 mM KH2PO4; 4.69 mM KCl; 118 mM NaCl; 1.3 mM CaCl2·2H2O; pH 7.4) containing 0.1% (w/v) BSA (KHB-BSA) before incubation (10 min, 37°C) in 360 µl KHB-BSA containing 500 µM isobutylmethylxanthine (IBMX). Ligands or vehicle control (40 µl) were added and reactions terminated after the appropriate times by replacement of the aqueous phase with ice-cold 0.5 M trichloroacetic acid. INS-1E cells grown to confluence in 24-well plates were treated similarly with the exception that after washing in KHB, cells were incubated in 200 µl KHB-BSA containing 1.4 mM glucose without IBMX for 2 h followed by challenge with ligands (or vehicle) for 15 min at 37°C in 400 µl KHB-BSA, in the presence of 10 mM glucose and 500 µM IBMX. Reactions were terminated as above.
(§3) The cAMP was extracted from either intact cell or membrane preparations using a method identical to that for extraction of Ins(1,4,5)P3 [22]. Levels of cAMP were then determined by a competitive radioreceptor assay using binding protein purified from bovine adrenal glands and related to cellular protein assessed by Bradford assay.
(§4) Concentration-response curves were fitted using GraphPad Prism (GraphPad Software Inc., CA) using a standard four parameter logistic equation. All data are representative of n≥3 or are presented as mean+/±s.e.m., where n = 3 unless otherwise stated. Statistical analysis was by oneway ANOVA and where P<0.05, followed by Bonferroni's or Dunnett's multiple range test as indicated. Alternatively analysis was performed by Student's t-test. Where potency estimates are given these are pEC50 values (−log10 of the molar concentration giving 50% of the maximal response).

[1] = target: T2, GLP-1R (native, rat insulinoma cell line INS-1E) (Rattus norvegicus, UniProt P32301); assay: cAMP generation in INS-1E cells
T2 construct: the rat insulinoma cell line, INS-1E, with native expression of the GLP-1R; endogenous in cells; host or cells: INS-1E rat insulinoma cells (gift of Prof. C.B. Wollheim)
T2 sequence (P32301 22-463): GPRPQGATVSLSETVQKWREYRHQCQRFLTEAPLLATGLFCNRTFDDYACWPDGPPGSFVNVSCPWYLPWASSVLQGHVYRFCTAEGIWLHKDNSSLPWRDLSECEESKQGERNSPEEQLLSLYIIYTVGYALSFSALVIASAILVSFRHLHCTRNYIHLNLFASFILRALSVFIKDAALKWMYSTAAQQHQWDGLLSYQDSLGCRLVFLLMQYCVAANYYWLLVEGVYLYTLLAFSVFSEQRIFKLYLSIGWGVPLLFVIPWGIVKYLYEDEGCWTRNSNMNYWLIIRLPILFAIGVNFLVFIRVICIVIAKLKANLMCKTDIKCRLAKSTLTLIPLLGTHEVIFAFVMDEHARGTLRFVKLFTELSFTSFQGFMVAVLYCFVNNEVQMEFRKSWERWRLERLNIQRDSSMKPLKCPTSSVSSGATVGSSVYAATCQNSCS
Experimental: as §1, §2, §3, §4

β2-adrenoceptors = assay: cAMP accumulation via β2-adrenoceptors in HEK-GLP-1R cells
Experimental: Ligands or vehicle control (40 µl) were added and reactions terminated after the appropriate times by replacement of the aqueous phase with ice-cold 0.5 M trichloroacetic acid. […] Reactions were terminated as above.
as §3
All data are mean±/+s.e.m., n = 3–4, *** P<0.001 and ** P<0.01 by Bonferroni's multiple range test. For clarity only differences between ‘numerical’ and ‘co-addition’ conditions are shown.

wild-type HEK293 cells = assay: ERK activation in wild-type HEK293 cells; conditions: data not shown
Experimental: Cells grown to confluence on 24-well plates pre-coated with poly-D-lysine (0.1% w/v) were washed and equilibrated in KHB at 37°C (400 µl). Cells were challenged at 37°C in 400 µl KHB-BSA and reactions terminated by replacement of buffer with 100 µl ice-cold Laemmli sample buffer (62.5 mM Tris-HCl, pH 6.8, 2% w/v SDS, 10% v/v glycerol, 50 mM DTT and 0.1% bromophenol blue). Proteins (∼30 µg) were separated by 12% SDS-PAGE, transferred onto polyvinylidene fluoride membranes, blocked for 1 h in 5% (w/v) skimmed milk powder in TTBS (150 mM NaCl, 50 mM Tris, pH 7.5, 0.1% Tween-20) and incubated overnight at 4°C with anti-phospho-ERK antibody (1∶2000) or anti-S6 antibody (1∶20,000) in 3% BSA in TTBS. Blots were washed (3×10 min) in TTBS and incubated for 1 h with anti-mouse HRP conjugated secondary antibody (1∶1000 in blocking buffer). After washing in TTBS (3×10 min), blots were exposed to ECL detection reagents (Uptima-Interchim, Montlucon, France) according to the manufacturer's guidelines and bands visualised using Kodak Medical X-ray film (Wolf Laboratories Ltd, Pocklington, U.K.). The intensities of the immunoblot bands were determined using ImageJ.

T1 sequence (P43220 24-463): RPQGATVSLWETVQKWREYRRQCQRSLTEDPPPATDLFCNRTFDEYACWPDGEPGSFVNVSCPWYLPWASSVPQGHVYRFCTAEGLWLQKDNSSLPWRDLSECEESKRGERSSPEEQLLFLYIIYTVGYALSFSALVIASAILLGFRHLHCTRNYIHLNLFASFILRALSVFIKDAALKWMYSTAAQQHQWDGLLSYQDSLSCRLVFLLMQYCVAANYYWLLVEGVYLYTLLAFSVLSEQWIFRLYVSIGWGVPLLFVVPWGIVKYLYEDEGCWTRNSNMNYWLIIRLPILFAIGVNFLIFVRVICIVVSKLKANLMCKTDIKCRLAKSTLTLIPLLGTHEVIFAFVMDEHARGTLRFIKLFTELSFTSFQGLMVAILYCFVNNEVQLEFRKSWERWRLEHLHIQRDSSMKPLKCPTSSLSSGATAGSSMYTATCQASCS

time of peak cAMP response (human GLP-1R; 1 µM compound 2, IBMX): 30 min
maximal response (Emax), cAMP (human GLP-1R; no pretreatment (buffer 10 min), 15 min challenge, IBMX, pH 7.4, 37°C, mean±s.e.m., n = 3): 1908±91 pmol/mg protein
pEC50, cAMP (human GLP-1R; no pretreatment (buffer 10 min), 15 min challenge, IBMX, compound 2: rising phase of bell-shaped curve, mean±s.e.m., n = 3): 5.94±0.04
Emax as % of the GLP-1 7–36 amide response, cAMP (human GLP-1R; no pretreatment, 15 min challenge, IBMX): 72%
pEC50, cAMP, after preincubation with GLP-1 9–36 amide (human GLP-1R; preincubated 10 min with 1 µM GLP-1 9–36 amide, 15 min challenge, IBMX, compound 2: rising phase, mean±s.e.m., n = 3): 6.55±0.07
cAMP elevation (INS-1E) ([1]; 3 µM compound 2 alone, 15 min): 40±8 pmol/mg protein
cAMP response in INS-1E (in words) ([1]; 15 min, 10 mM glucose, IBMX): elevated cAMP with low-potency
Emax as % of that evoked by GLP-1 7–36 amide, cAMP (INS-1E) ([1]; compound 2 alone, concentrations greater than 10 µM not tested): 34%
SMILES: CC(C)(C)Nc1nc2cc(Cl)c(Cl)cc2nc1S(C)(=O)=O [compound 2, 6,7-dichloro-2-methylsulfonyl-3-N-tert-butylaminoquinoxaline]
cAMP response over time (in words) (human GLP-1R; 1 µM, over 60 min, IBMX, 5% DMSO, n = 3): evoked a more robust increase, which peaked at 30 min and then declined
cAMP response (in words) (human GLP-1R; concentration-response, 15 min, IBMX): at >3 µM caused progressively lower cAMP responses, resulting in a bell-shaped concentration-response curve
effect on cAMP generation by the β-adrenoceptor (β2-adrenoceptors; Figure 3D): inability of compound 2 to influence cAMP generation
cAMP accumulation on co-stimulation with isoproterenol and compound 2 versus numerical sum (β2-adrenoceptors; isoproterenol (100 µM) + compound 2 (1 µM), IBMX, 5% DMSO): only equivalent to the numerical addition of responses to the two ligands when used alone
ERK activation in wild-type HEK293 cells (wild-type HEK293 cells): Neither GLP-1 9–36 amide, GLP-1 7–36 amide nor compound 2 increased ERK activation
